Where “and” joins values, the source holds several entries; their conditions need not be identical. Equal values may be shown once.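 Where inhibition never reached the appropriate level, the endpoint shown equals the highest concentration tested. Otherwise, values were interpolated linearly from a five-concentration, 48-hour dose response in 96-well plates. Abbreviation: GI50, concentration required for 50% inhibition of growth. The concentration for full growth arrest is given as TGI.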
Key:
Assay in all cases: DTP human tumour cell line panel, 48 h
HCC-2998 colon = test system: HCC-2998 colon
HL-60(TB) leukemia = test system: HL-60(TB) leukemia
HS 578T breast = test system: HS 578T breast
KM12 colon = test system: KM12 colon
M14 melanoma = test system: M14 melanoma
MALME-3M melanoma = test system: MALME-3M melanoma
NCI-H23 lung = test system: NCI-H23 lung
RPMI-8226 leukemia = test system: RPMI-8226 leukemia
SF-295 CNS = test system: SF-295 CNS
SNB-75 CNS = test system: SNB-75 CNS

Row | Structure (SMILES) | GI50 (HCC-2998 colon) | TGI (HCC-2998 colon) | GI50 (HL-60(TB) leukemia) [µM] | TGI (HL-60(TB) leukemia) | GI50 (HS 578T breast) | TGI (HS 578T breast) | GI50 (KM12 colon) | TGI (KM12 colon) | GI50 (M14 melanoma) | TGI (M14 melanoma) | GI50 (MALME-3M melanoma) [nM] | TGI (MALME-3M melanoma) | GI50 (NCI-H23 lung) | TGI (NCI-H23 lung) | GI50 (RPMI-8226 leukemia) | TGI (RPMI-8226 leukemia) | GI50 (SF-295 CNS) | TGI (SF-295 CNS) | GI50 (SNB-75 CNS) | TGI (SNB-75 CNS)
1 | COc1ccc(/C=C/C(=O)c2ccc(Nc3ncnc4ccccc34)cc2)cc1OC | 3.22 µM | 11.8 µM | 20.7 | > 100 µM | 15.3 µM | > 100 µM | 3.45 µM | > 100 µM | 6240 nM | > 100 µM | 13800 | > 100 µM | 4690 nM | > 100 µM | 0.365 µM | 1.66 µM | 6.25 µM | > 100 µM | 5.19 µM | 48.3 µM
2 | N#Cc1nc(-c2cccc(Br)c2)cc(-c2ccc(Nc3nc(N4CCCCC4)nc(N4CCCCC4)n3)cc2)c1N | 2.31 µM | 6.62 µM | 2.27 | 6.47 µM | 2.1 µM | 5.29 µM | 1.91 µM | 3.91 µM | 2840 nM | 7.5 µM | 1680 | 3.1 µM | 2390 nM | 8.33 µM | 2.19 µM | 24 µM | 2.72 µM | 8.81 µM | 1.36 µM | 3.73 µM
3 | Nc1nc(-n2cccn2)nc(-n2cccn2)c1Br | > 100 µM | > 100 µM | > 100 | > 100 µM | > 100 µM | > 100 µM | > 100 µM | > 100 µM | > 100000 nM | > 100 µM | > 100000 | > 100 µM | > 100000 nM | > 100 µM | > 100 µM | > 100 µM | > 100 µM | > 100 µM | 24.6 µM | > 100 µM
4 | COc1ccc(NC2=C(Sc3nc(C)cc(C)n3)C(=O)N(Cc3ccccc3)C2=O)cc1Cl | > 160 µM | > 160 µM | 140 | > 160 µM | 67.9 µM | > 160 µM | > 160 µM | > 160 µM | > 160000 nM | > 160 µM | > 160000 | > 160 µM | > 160000 nM | > 160 µM | 8.79 µM | > 160 µM | 74.9 µM | > 160 µM | 40.8 µM | > 160 µM
5 | CC[C@@]1(O)C(=O)NCc2c1cc1n(c2=O)Cc2cc3cc4c(cc3nc2-1)OCO4 | 0.984 µM | > 89.1 µM | 0.0462 | 0.502 µM | 94.1 µM | > 100 µM | 11.7 µM | > 100 µM | 441 nM | > 39.2 µM | 1470 | 35.7 µM | 798 nM | > 13.2 µM | 0.293 µM | 9.02 µM | 0.148 µM | 25.7 µM | 0.5 µM | 3.57 µM
6 | COc1ccc(-c2ccc(/C=N/n3cn[nH]c3=S)o2)c([N+](=O)[O-])c1 | 38.9 µM | > 100 µM | 14.5 | 33.7 µM | 30.6 µM | 85.3 µM | 27.2 µM | > 100 µM | 49000 nM | > 100 µM | 23800 | > 100 µM | 39300 nM | > 100 µM | 22.5 µM | 70.1 µM | 36 µM | > 100 µM | – | –
7 | Cc1sc2ncnc(Sc3nc4ccccc4[nH]3)c2c1C | 50.4 µM | > 100 µM | 22.7 | 59.4 µM | 18.4 µM | 67.6 µM | 27.2 µM | > 100 µM | 41100 nM | > 100 µM | 15600 | 80.1 µM | 30400 nM | > 100 µM | 19.5 µM | > 100 µM | 55.8 µM | > 100 µM | 1.52 µM | 27 µM
8 | Cn1cnc2c(F)c(Nc3ccc(Br)cc3Cl)c(C(=O)NOCCO)cc21 | 0.0213 µM and < 0.0171 µM | > 10 µM and 2.77 µM | 0.0218 | > 10 µM and 5.35 µM | > 10 µM and 32.5 µM | > 100 µM | 0.685 µM and 0.847 µM | > 100 µM | 27.1 nM and < 14.4 nM | > 6.91 µM and 4.53 µM | < 18.7 | 0.018 µM | 740 nM and 1040 nM | > 100 µM | > 10 µM and 28.2 µM | > 100 µM | > 10 µM and 67.2 µM | > 100 µM | > 10 µM and 60.4 µM | > 100 µM
9 | CNC(=O)c1cc(Oc2ccc3nc(NC(=O)Nc4ccc(Cl)c(Cl)c4)sc3c2)ccn1 | 5.04 µM | > 100 µM | > 100 | > 100 µM | 2.77 µM | 6.66 µM | 3 µM | > 100 µM | 2130 nM | 4.74 µM | 1510 | 3.3 µM | 2780 nM | > 100 µM | 3.66 µM | > 100 µM | 1.53 µM | 3.13 µM | 1.73 µM | 3.61 µM
10 | C=C1C(=O)O[C@H]2[C@H]1CC/C(COC(=O)NCCc1ccc(OC)cc1)=C\CC[C@@]1(C)O[C@@H]21 | 2.48 µM | 5.63 µM | 2.34 | 5.72 µM | 13.8 µM | 62.9 µM | 8.36 µM | 24.4 µM | 1980 nM | 4.78 µM | 2440 | 6.7 µM | 4340 nM | 18.6 µM | 2.85 µM | 7.59 µM | 13.5 µM | 27.4 µM | 4.09 µM | 16.6 µM
11 | CCCCCCC(C)CC(CCCCCC)NCCOC(=O)c1ccc([N+](=O)[O-])cc1 (stereo not drawn) | – | 42.8 µM and 9.35 µM | – | – | – | 41.5 µM and 41.1 µM | – | 27.9 µM and 23.7 µM | 12400 nM and 4530 nM | 28.4 µM and 17.7 µM | – | 28 µM and 25.7 µM | – | 38.9 µM and 34.5 µM | – | 24 µM and 30.2 µM | – | 25.3 µM and 31.3 µM | – | 30.4 µM and 33.4 µM
12 | COc1ccc(C2CC(=O)Nc3c2c(C)nn3-c2nc3ccccc3[nH]2)cc1 (stereo not drawn) | 5.67 µM | > 58.5 µM | 3.13 | 9.83 µM | 3.19 µM | 17.7 µM | 2.72 µM | 7.09 µM | 2540 nM | 7.12 µM | 2220 | 8.04 µM | 2570 nM | 6.83 µM | 2.41 µM | 5.48 µM | 1.7 µM | 4.19 µM | 2.36 µM | 9.12 µM

Reference: PubChem BioAssay (NCI)
